Results taken from US20230272390A1, “COMPOSITIONS AND METHODS FOR HEMOGLOBIN PRODUCTION” (THE CHILDREN'S HOSPITAL OF PHILADELPHIA, priority 2020, published 2023).

How the values were obtained:
ZNF410 [1] = experiment: RNA-seq in ZNF410 depleted differentiated HUDEP-2 cells; format: cell-based, human; conditions: vs non-targeting sgRNA
Method: HUDEP-2 cells were cultured and differentiated as described (Kurita, et al. (2013) PLoS One 8:e59890). Briefly, StemSpan™ Serum-Free Expansion Medium (SFEM) supplemented with 50 ng/ml human stem cell factor (SCF), 10 μM dexamethasone, 1 μg/ml doxycycline, 3 IU/ml erythropoietin and 1% penicillin/streptomycin was utilized for routine cell maintenance. Cell density was kept at 0.1-1×10^6/ml. HUDEP-2 cells were differentiated for 6-7 days in IMDM supplemented with 50 ng/ml human SCF, 3 IU/ml erythropoietin, 2.5% fetal bovine serum, 250 μg/ml holo-transferrin, 10 ng/ml heparin, 10 μg/ml insulin, 1 μg/ml doxycycline and 1% penicillin/streptomycin.
Lentivirus was produced as described (Grevet, et al. (2018) Science 361:285-290). Briefly, 10-20 μg of expression vectors, 5-10 μg of pVSVG (pMD2.G) and 7.5-15 μg of psPAX2 package plasmids, and 80 μl of 1 mg/ml polyethylenimine (PEI) were mixed, incubated for 15-20 minutes, and added to HEK293T cells grown in 10 cm plates to above 90% confluence. Media were replaced 6-8 hours post transfection, virus was collected 24 hours and 48 hours post-transfection and pooled. For infection, virus-containing supernatant was mixed with the indicated cell lines with 8 μg/ml polybrene and 10 mM HEPES, and then spun at 2250 rpm for 1.5 hours at room temperature. Infected HUDEP-2 cells were selected for mCherry+ or GFP+ cell sorting at 48 hours post-infection.
(§1) Total RNAs were purified as described above. Sequencing libraries were then constructed using 100 ng of purified total RNA using the ScriptSeg™ Complete Kit (Illumina cat #BHMR1224) according to manufacturer's protocol. RNA was subjected to rRNA depletion using the Ribo-Zero™ removal reagents and fragmented. First strand cDNA was synthesized using a 5′ tagged random hexamer, and reversely transcribed, followed by annealing of a 5′ tagged, 3′-end blocked terminal-tagged oligo for second strand synthesis. The Di-tagged cDNA fragments were purified, barcoded, and PCR-amplified for 15 cycles.
(§2) The size and quality of each library were evaluated by Bioanalyzer 2100 (Agilent Technologies, Santa Clara, Calif.), and quantified using qPCR. Libraries were sequenced in paired-end mode on a NextSeq 500 instrument to generate 2×76 bp reads using Illumina-supplied kits. The sequence reads were processed using the ENCODE3 long RNA-seq pipeline (encodeproject.org/pipelines/ENCPL002LPE/). In brief, reads were mapped to the human genome (hg38 assembly) using STAR, followed by RSEM for gene quantifications.
(§3) The normalized FPKM (fragments per kilo base per million mapped reads) for each gene was averaged in 2 replicates and then filtered to keep those with average FPKM at least 10 in both HUDEP-2 cells and primary erythroblasts, resulting in ˜5000 high abundant genes each cell type for further analysis. Log2 fold-change was calculated from FPKM of sgRNA targeting ZNF410 compared to control sgRNA (non-targeting sgRNA) using the DESeq2 method, and top changed genes were selected with fold-change at least 1.5 and p-value<0.05. Commonly changed genes in both independent sgRNAs were considered to be significant. Scatter plots were generated using ggplot2 in RStudio for all expressed genes (FPKM>5).
(§4) ZNF410 functions as a transcriptional activator (Benanti, et al. (2002) Mol. Cell Biol., 22:7385-7397). To understand how ZNF410 regulates the transcription of γ-globin genes, RNA-seq experiments were performed in ZNF410 depleted differentiated HUDEP-2 cells and primary human erythroblasts.

ZNF410 [2] = experiment: RNA-seq in ZNF410 depleted primary human erythroblasts (CD34+ HSPC derived); format: cell-based; conditions: primary CD34+ cells (erythroblasts), vs non-targeting sgRNA
Method: Primary human CD34+ HSPCs from mobilized peripheral blood were purchased from the Fred Hutchinson Cancer Research Center. Human CD34+ HSPCs were differentiated using a three-phase culture system as described (Grevet, et al. (2018) Science 361:285-290). Briefly, IMDM supplemented with 3 IU/ml erythropoietin, 2.5% human male AB serum, 10 ng/ml heparin, and 10 μg/ml insulin was used as base medium. For phase I medium, 100 ng/ml human SCF, 5 ng/ml IL-3, and 250 μg/ml holo-transferrin were supplemented. For phase II medium, 100 ng/ml human SCF and 250 μg/ml holo-transferrin were added. For phase III medium, 1.25 mg/ml holo-transferrin was supplemented.
Commercial sgRNAs were purchased from IDT (Coralville, Iowa) or Synthego (Menlo Park, Calif.). To assemble the RNP complexes, 100 pmol sgRNA and 50 pmol SpCas9 protein (from IDT) were incubated at room temperature for 15 minutes. CD34+ HSPCs (50k-100k) at Day 3-4 of phase I culture were electroporated using P3 Primary Cell 4D Nucleofector™ X Kit (from Lonza) with the program DZ100 (Bak, et al. (2018) Nat. Protoc., 13:358-376).
as §1, §2, §3, §4

Substance	log2(sgRNA/NT) AC092490.1 transcript (ZNF410 [1])	log2(sgRNA/NT) AC104389.5 transcript (ZNF410 [1])	log2(sgRNA/NT) AK1 transcript (ZNF410 [1])	log2(sgRNA/NT) CD63 transcript (ZNF410 [1])	log2(sgRNA/NT) CHD4 transcript (ZNF410 [1])	log2(sgRNA/NT) CKB transcript (ZNF410 [1])	log2(sgRNA/NT) FOS transcript (ZNF410 [1])	log2(sgRNA/NT) H1F0 transcript (ZNF410 [1])	log2(sgRNA/NT) HBG1/2 transcript (ZNF410 [1])	log2(sgRNA/NT) PRG2 transcript (ZNF410 [1])	log2(sgRNA/NT) S100A10 transcript (ZNF410 [1])	log2(sgRNA/NT) SCARNA3 transcript (ZNF410 [1])	log2(sgRNA/NT) TUBA1A transcript (ZNF410 [1])	log2(sgRNA/NT) AC092490.1 transcript (ZNF410 [2])	log2(sgRNA/NT) ACSL6 transcript (ZNF410 [2])	log2(sgRNA/NT) CBX6 transcript (ZNF410 [2])	log2(sgRNA/NT) CHD4 transcript (ZNF410 [2])	log2(sgRNA/NT) HBG1/2 transcript (ZNF410 [2])	log2(sgRNA/NT) HSPB1 transcript (ZNF410 [2])	log2(sgRNA/NT) PAFAH1B3 transcript (ZNF410 [2])	also measured
ZNF410 sgRNA#1: sgRNA targeting the DNA-binding domain of ZNF410, GAACCACCAGATGTTTTCGG (SEQ ID NO: 4) (listed as DNA, chemistry not given here)	−1.45	3.95	1.99	1.90	−0.99	2.44	−1.32	2.41	4.26	2.09	−1.60	−0.89	−1.06	−1.50	−1.67	−1.56	−0.93	1.47	2.01	1.35	log2(sgRNA/NT) ATF5 transcript (ZNF410 [1]): 1.65; log2(sgRNA/NT) GLIPR2 transcript (ZNF410 [1]): −1.14; log2(sgRNA/NT) MIF transcript (ZNF410 [1]): 1.92; log2(sgRNA/NT) PPP4R1 transcript (ZNF410 [1]): −0.95; log2(sgRNA/NT) RF00019 transcript (ZNF410 [1]): −2.43; log2(sgRNA/NT) TMCC2 transcript (ZNF410 [1]): −1.18; log2(sgRNA/NT) TMSB10 transcript (ZNF410 [1]): 1.79; log2(sgRNA/NT) COA4 transcript (ZNF410 [2]): 1.30; log2(sgRNA/NT) DYNLT1 transcript (ZNF410 [2]): 1.27; log2(sgRNA/NT) GPCPD1 transcript (ZNF410 [2]): −0.93; log2(sgRNA/NT) ISOC2 transcript (ZNF410 [2]): 1.34; log2(sgRNA/NT) PKN1 transcript (ZNF410 [2]): 1.32; log2(sgRNA/NT) PRDX5 transcript (ZNF410 [2]): −1.00; log2(sgRNA/NT) RPS19BP1 transcript (ZNF410 [2]): 1.42; log2(sgRNA/NT) SELENOW transcript (ZNF410 [2]): 1.55; log2(sgRNA/NT) SMOX transcript (ZNF410 [2]): −1.45; log2(sgRNA/NT) SPC25 transcript (ZNF410 [2]): −0.93; log2(sgRNA/NT) STUB1 transcript (ZNF410 [2]): 1.46; log2(sgRNA/NT) TMCC2 transcript (ZNF410 [2]): −2.01; log2(sgRNA/NT) ZNF410 transcript (ZNF410 [2]): −1.49
ZNF410 sgRNA#2: sgRNA targeting the DNA-binding domain of ZNF410, CTCATCAGTGCCAAGTCTGT (SEQ ID NO: 5) (listed as DNA, chemistry not given here)	−1.50	4.01	1.83	1.75	−1.23	2.24	−1.88	2.13	4.28	2.17	−1.59	−1.30	−1.07	−1.47	−1.47	−2.01	−1.08	1.75	2.15	1.40	log2(sgRNA/NT) PLA2G6 transcript (ZNF410 [1]): −1.01; log2(sgRNA/NT) RNU5B-1 transcript (ZNF410 [1]): 3.60; log2(sgRNA/NT) RNU5E-1 transcript (ZNF410 [1]): 1.82; log2(sgRNA/NT) RNU6-11P transcript (ZNF410 [1]): −1.11; log2(sgRNA/NT) SCARNA18 transcript (ZNF410 [1]): −1.20; log2(sgRNA/NT) SLC2A3P1 transcript (ZNF410 [1]): −1.49; log2(sgRNA/NT) SNORD97 transcript (ZNF410 [1]): 2.29; log2(sgRNA/NT) AC104389.5 transcript (ZNF410 [2]): 1.43; log2(sgRNA/NT) AC130456.3 transcript (ZNF410 [2]): −2.03; log2(sgRNA/NT) CDKN1A transcript (ZNF410 [2]): 1.38; log2(sgRNA/NT) IFI27 transcript (ZNF410 [2]): 1.78; log2(sgRNA/NT) KDM7A transcript (ZNF410 [2]): −1.32; log2(sgRNA/NT) PKN1 transcript (ZNF410 [2]): 1.43; log2(sgRNA/NT) PRDX5 transcript (ZNF410 [2]): −1.09; log2(sgRNA/NT) RN7SL471P transcript (ZNF410 [2]): 1.60; log2(sgRNA/NT) SELENOW transcript (ZNF410 [2]): 1.67; log2(sgRNA/NT) SMOX transcript (ZNF410 [2]): −1.24; log2(sgRNA/NT) STUB1 transcript (ZNF410 [2]): 1.40; log2(sgRNA/NT) TMCC2 transcript (ZNF410 [2]): −1.69; log2(sgRNA/NT) ZNF410 transcript (ZNF410 [2]): −1.24
